The text below walks through data of publication PMC3117731, “A systems biology approach to dynamic modeling and inter-subject variability of statin pharmacokinetics in human hepatocytes” (BMC Systems Biology, 2011).

Several values for one entry are separate records, joined by “and”; a condition that tells them apart may be missing. Identical values can stand only once. Like-named read-outs stand apart in the source and are kept apart here.

For one series, the system named is PON enzymes. In words: PON mediated lactone hydrolysis, rate constants estimated in the optimization procedure. In kind it is in vitro ADME, human. The following applies: nominal value from optimization. From the text:
The lactone metabolites are either hydrolyzed chemically to the respective acid metabolites inside (c) or outside (m) the cell, or enzymatically by the contribution of PON enzymes inside the cell. Both reactions are described as first order kinetics(4) [drawing 6]
Therefore, maximal rate constants r max of CYP3A4 hydroxylation and UGT1A3 lactonization were predicted for individual 2 and 3 via the relative abundance approach (equation (11)) using the r max -parameters of individual 1 (Table 3) and the protein concentrations observed on the primary human hepatocytes (Table 4). These parameters were then fixed in the optimization. Further, the rate constants k of PON mediated lactone hydrolysis of individual 2 and 3 were estimated in the optimization procedure.

Another series addresses CYP3A4 (Homo sapiens, UniProt P08684).
In series [1] the test system is primary human hepatocytes. The series is described as follows: Time-series experiment of atorvastatin biotransformation in primary human hepatocytes (extra- and intracellular metabolites by LC-MS-MS, model fit). The format is in vitro ADME. Conditions: individual 1; 10 μM AS.
Protocol: Hepatocytes were cultured on collagen gel precoated 6-well plates at a density of 1.5·10^6 cells/well. Cells were allowed to attach to the collagen layer. After transport, culture media was disposed and attached cells were cultured 24 h at 37°C in a humidified chamber with 95%/5% air/CO2 in serum-free medium WME, supplemented with albumin (0.1% (v/v)), penicillin/streptomycin (100 U/ml), stabilized L-glutamine (2 mM), dexamethasone dihydrogenphosphate (0.025% (v/v)) and ITS-X (5 mg insulin, 3.35 μg natrium-selenit, 2.75 mg transferrin and 1 mg ethanolamine), further named SFM.
At specified time-points, three wells were further treated for the preparation of samples for the measurement of extracellular and intracellular metabolites, respectively. SFM media was collected and 50 μL formic acid and deuterated internal standard was added for the further measurement of extracellular metabolites. Cells were harvested in pre-cooled albumin-free SFM, disrupted by freeze/thaw and ultra-sonification and centrifuged. The supernatant was used for the determination of intracellular metabolites.
MS-MS analysis was performed on an Esquire HCT ultra ion trap mass spectrometer (Bruker Daltonics, Bremen, Germany) coupled to an HPLC 1100-System (Agilent, Waldbronn, Germany) consisting of binary pump G1312A, degasser G1379A, well-plate sampler G1367A and column thermostat G1330B. […] The following parameters were applied: nebulizer 45 psi, dry gas 10 l/min, dry temperature 300°C, capillary 4100 V, scan range 200 - 600 m/z.
In series [2] the test system is primary human hepatocytes. In words: Apparent (lumped active transport and passive diffusion) import and export in primary human hepatocytes. In kind it is in vitro ADME. From the text: Thus, in the following, mechanisms of active transport and passive diffusion are lumped, resulting in the apparent transport rate for import,(12) [drawing 22]
and in the apparent transport rate for export(13) [drawing 23]
described by the product of apparent rate constant κ im/ex of import or export and extra- or intracellular concentration [drawing 24] , respectively (Figure 3). Consequently, the rate constants κ of import and export are set individually, and were to be estimated in the optimization procedure.

Details of series [3]: method as in PMID 8272408. The following applies: estimated from experimental observations; assumed to be same for ASLpOH and ASLoOH; cited from earlier work.
Where [4] appears, read: Individual 1, nominal value from optimization, per ml intracellular volume.
Where [5] appears, read: Individual 2, predicted via relative abundance approach from individual 1 and CYP3A4 protein concentration.
Where [6] appears, read: Individual 1, nominal value from optimization.
Setting [7] is: Individual 2, nominal value from optimization.
Where [8] appears, read: Individual 3, nominal value from optimization.

CYP3A4, sequence (P08684 2-503 limits assumed): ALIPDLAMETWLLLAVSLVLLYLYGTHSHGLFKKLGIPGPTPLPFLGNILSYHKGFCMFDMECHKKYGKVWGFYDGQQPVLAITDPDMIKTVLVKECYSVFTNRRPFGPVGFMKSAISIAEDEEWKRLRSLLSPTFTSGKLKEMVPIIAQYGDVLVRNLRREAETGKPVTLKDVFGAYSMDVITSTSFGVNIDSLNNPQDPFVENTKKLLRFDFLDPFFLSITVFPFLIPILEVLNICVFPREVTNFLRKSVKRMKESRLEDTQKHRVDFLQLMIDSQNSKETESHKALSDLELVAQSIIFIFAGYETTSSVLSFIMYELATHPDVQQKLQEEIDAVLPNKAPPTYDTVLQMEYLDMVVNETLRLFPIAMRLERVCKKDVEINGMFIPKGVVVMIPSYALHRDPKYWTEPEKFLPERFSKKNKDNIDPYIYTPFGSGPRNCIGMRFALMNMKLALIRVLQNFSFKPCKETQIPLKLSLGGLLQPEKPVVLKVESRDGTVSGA

As for “hydroxy-atorvastatin lactones (para- and ortho-) [ASLOH]”, the entries for the “κPON (rate constant of PON mediated lactone hydrolysis)” value in the series on PON enzymes (Individual 1), in the series with PON enzymes (Individual 2) and in the series on PON enzymes (Individual 3) were 280 10^-3 min^-1, 545 10^-3 min^-1 and 82.9 10^-3 min^-1, respectively.
In the case of `CC(C)c1c(C(=O)Nc2ccc(O)cc2)c(-c2ccccc2)c(-c2ccc(F)cc2)n1CC[C@@H]1C[C@@H](O)CC(=O)O1` [ASLpOH, para-hydroxy-atorvastatin lactone], the “rmax,3A4 (maximal rate of CYP3A4 hydroxylation to the labelled metabolite)” value (“rmax,3A4” below) was 1228 pmol/min/mL at CYP3A4 (setting [4]) and 731 pmol/min/mL on CYP3A4 (setting [5]). For the same compound, the “ratio of intracellular AUC 0-600 min to extracellular AUC 0-600 min” value in series [1] amounted to 38.2. Also, in series [1], the “ratio of intracellular c max to extracellular c max” value worked out at 34.5. Also, the “κex (apparent rate constant of export)” value in series [2] (setting [6]) is 1.13 µL/min and 33.7 µL/min; in series [2] (setting [7]), 1.01 µL/min and 7.24 µL/min; in series [2] (setting [8]) it was 0.59 µL/min and 8.59 µL/min.
With `CC(C)c1c(C(=O)Nc2ccccc2)c(-c2ccccc2)c(-c2ccc(F)cc2)n1CC[C@@H]1C[C@@H](O)CC(=O)O1` [ASL, atorvastatin lactone], the “κex (apparent rate constant of export)” value amounted to 21.8 µL/min in series [2] (setting [6]), 2.48 µL/min in series [2] (setting [7]) and 10.5 µL/min in series [2] (setting [8]). Further, the results for the “κim (apparent rate constant of import)” value in series [2] (setting [6]), in series [2] (setting [7]) and in series [2] (setting [8]) were 275 µL/min, 25.8 µL/min and 82.7 µL/min, respectively. In addition, in series [3], the “kCR (rate constant of spontaneous hydrolysis of the lactone)” value was 0.0025 min⁻¹. Further, the “κPON (rate constant of PON mediated lactone hydrolysis)” value in the series with PON enzymes (Individual 1) was 308 10^-3 min^-1; in the series with PON enzymes (Individual 2) it was 99.2 10^-3 min^-1; with PON enzymes (Individual 3), 0.00 10^-3 min^-1.
For `CC(C)c1c(C(=O)Nc2ccccc2O)c(-c2ccccc2)c(-c2ccc(F)cc2)n1CCC(O)CC(O)CC(=O)O` (stereo not shown) [ASoOH, ortho-hydroxy-atorvastatin acid], the “rmax,3A4” value on CYP3A4 (setting [4]) is 3345 pmol/min/mL; at CYP3A4 (setting [5]) it was 1991 pmol/min/mL. The “ratio of intracellular AUC 0-600 min to extracellular AUC 0-600 min” value in series [1] is listed as 4.5. For the same compound, the “ratio of intracellular c max to extracellular c max” value in series [1] is recorded as 2.5. The “κex (apparent rate constant of export)” value in series [2] (setting [6]) was 1.60 µL/min; in series [2] (setting [7]), 3.62 µL/min; in series [2] (setting [8]) it was 0.91 µL/min. Also, the “κim (apparent rate constant of import)” value was found to be 0.39 µL/min in series [2] (setting [6]), 0.22 µL/min in series [2] (setting [7]) and 0.00 µL/min in series [2] (setting [8]).
Consider `CC(C)c1c(C(=O)Nc2ccc(O)cc2)c(-c2ccccc2)c(-c2ccc(F)cc2)n1CC[C@@H](O)C[C@@H](O)CC(=O)O` [ASpOH, para-hydroxy-atorvastatin acid], for which the results for the “rmax,3A4” value at CYP3A4 (setting [4]) and at CYP3A4 (setting [5]) were 1108 pmol/min/mL and 660 pmol/min/mL, respectively. The “κex (apparent rate constant of export)” value in series [2] (setting [6]) stood at 0.80 µL/min; in series [2] (setting [7]), 1.25 µL/min; in series [2] (setting [8]), 0.52 µL/min. Further, the figures for the “κim (apparent rate constant of import)” value in series [2] (setting [6]), in series [2] (setting [7]) and in series [2] (setting [8]) were 3.96 µL/min, 2.01 µL/min and 2.53 µL/min, respectively.
With `CC(C)c1c(C(=O)Nc2ccccc2O)c(-c2ccccc2)c(-c2ccc(F)cc2)n1CC[C@@H]1C[C@@H](O)CC(=O)O1` [ASLoOH, ortho-hydroxy-atorvastatin lactone], the “rmax,3A4” value was 2756 pmol/min/mL at CYP3A4 (setting [4]) and 1640 pmol/min/mL on CYP3A4 (setting [5]). Also, the entries for the “κex (apparent rate constant of export)” value in series [2] (setting [6]), in series [2] (setting [7]) and in series [2] (setting [8]) were 2.67 µL/min, 86.3 µL/min and 0.77 µL/min, respectively. Also, the “κim (apparent rate constant of import)” value in series [2] (setting [6]) stood at 26.1 µL/min; in series [2] (setting [7]) it was 530 µL/min; in series [2] (setting [8]), 2.43 µL/min.
